According to ChEMBL document CHEMBL5465560, “Selectivity Literature for EUbOPEN Chemogenomic Library” (2024):

Key:
[1] = target: T1, Histone-lysine N-methyltransferase SETD7 (Homo sapiens) (UniProt Q8WTS6); conditions: at 10 µM
T1 sequence (whole entry): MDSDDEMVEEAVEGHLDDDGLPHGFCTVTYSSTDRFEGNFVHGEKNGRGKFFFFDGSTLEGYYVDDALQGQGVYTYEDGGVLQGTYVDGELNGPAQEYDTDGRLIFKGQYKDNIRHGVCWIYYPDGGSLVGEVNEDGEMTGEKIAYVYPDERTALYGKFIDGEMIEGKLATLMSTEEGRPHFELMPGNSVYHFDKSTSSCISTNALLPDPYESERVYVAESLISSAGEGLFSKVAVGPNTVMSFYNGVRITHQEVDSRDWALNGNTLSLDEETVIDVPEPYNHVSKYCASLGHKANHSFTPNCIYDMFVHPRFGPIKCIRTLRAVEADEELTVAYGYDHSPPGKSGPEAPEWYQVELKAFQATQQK

[2] = target: Transcription initiation factor TFIID subunit 1-like (Homo sapiens) (UniProt Q8IZX4); assay: Selectivity interaction (Bromodomain panel (DSF asssay)) EUB0000270b TAF1L
Sequence of Transcription initiation factor TFIID subunit 1-like (Homo sapiens) (Q8IZX4 whole entry): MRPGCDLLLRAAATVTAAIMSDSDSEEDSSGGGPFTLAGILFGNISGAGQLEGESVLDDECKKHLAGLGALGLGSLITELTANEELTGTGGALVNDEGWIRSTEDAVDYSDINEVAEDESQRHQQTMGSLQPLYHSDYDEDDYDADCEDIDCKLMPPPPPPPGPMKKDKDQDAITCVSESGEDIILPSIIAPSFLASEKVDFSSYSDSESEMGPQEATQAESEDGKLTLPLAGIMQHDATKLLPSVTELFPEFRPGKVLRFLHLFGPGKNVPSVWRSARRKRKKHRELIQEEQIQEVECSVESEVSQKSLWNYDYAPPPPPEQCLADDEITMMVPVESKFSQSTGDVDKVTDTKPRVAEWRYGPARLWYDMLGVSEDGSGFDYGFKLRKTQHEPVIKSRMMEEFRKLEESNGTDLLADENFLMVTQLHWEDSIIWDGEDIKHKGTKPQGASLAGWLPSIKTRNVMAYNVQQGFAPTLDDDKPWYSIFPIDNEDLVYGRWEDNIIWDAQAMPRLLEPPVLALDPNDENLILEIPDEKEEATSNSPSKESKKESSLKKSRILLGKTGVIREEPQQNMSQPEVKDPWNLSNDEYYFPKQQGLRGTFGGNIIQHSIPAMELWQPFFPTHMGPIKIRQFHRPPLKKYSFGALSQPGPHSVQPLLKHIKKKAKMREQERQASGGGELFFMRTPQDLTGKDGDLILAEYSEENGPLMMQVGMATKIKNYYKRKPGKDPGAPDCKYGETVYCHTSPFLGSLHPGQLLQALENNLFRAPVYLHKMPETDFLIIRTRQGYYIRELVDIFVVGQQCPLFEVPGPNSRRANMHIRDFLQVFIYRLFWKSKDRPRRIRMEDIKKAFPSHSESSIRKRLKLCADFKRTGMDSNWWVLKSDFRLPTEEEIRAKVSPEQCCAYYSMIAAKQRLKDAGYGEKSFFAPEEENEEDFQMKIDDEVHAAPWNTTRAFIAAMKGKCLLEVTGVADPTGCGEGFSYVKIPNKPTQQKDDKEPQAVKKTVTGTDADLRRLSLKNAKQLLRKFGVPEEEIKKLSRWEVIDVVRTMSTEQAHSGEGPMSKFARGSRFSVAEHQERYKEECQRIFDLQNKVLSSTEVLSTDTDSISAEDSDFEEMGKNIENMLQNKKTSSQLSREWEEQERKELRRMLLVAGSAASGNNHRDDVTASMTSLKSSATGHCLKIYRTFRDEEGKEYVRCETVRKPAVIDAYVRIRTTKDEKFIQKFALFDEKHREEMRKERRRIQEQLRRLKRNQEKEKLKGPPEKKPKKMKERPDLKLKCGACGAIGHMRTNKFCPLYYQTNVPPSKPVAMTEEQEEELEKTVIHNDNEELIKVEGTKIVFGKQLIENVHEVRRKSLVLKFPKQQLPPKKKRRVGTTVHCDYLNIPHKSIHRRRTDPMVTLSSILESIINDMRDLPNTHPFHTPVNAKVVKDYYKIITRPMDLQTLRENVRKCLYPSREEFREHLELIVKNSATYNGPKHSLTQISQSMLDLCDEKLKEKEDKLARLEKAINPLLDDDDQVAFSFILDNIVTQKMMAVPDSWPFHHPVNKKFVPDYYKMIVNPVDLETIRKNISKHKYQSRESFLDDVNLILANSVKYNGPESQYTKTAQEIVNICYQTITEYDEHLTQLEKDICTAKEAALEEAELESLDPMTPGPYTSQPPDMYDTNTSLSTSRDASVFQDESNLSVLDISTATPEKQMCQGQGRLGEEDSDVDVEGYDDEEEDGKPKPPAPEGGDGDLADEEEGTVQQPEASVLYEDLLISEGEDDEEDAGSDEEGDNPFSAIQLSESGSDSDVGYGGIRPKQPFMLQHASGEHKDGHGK

[3] = target: Serine/threonine-protein kinase MARK2 (Homo sapiens) (UniProt Q7KZI7); assay: Selectivity interaction (Kinase panel (Invitrogen)) EUB0000639a MARK2; conditions: at 200 nM
Sequence of Serine/threonine-protein kinase MARK2 (Homo sapiens) (Q7KZI7 whole entry): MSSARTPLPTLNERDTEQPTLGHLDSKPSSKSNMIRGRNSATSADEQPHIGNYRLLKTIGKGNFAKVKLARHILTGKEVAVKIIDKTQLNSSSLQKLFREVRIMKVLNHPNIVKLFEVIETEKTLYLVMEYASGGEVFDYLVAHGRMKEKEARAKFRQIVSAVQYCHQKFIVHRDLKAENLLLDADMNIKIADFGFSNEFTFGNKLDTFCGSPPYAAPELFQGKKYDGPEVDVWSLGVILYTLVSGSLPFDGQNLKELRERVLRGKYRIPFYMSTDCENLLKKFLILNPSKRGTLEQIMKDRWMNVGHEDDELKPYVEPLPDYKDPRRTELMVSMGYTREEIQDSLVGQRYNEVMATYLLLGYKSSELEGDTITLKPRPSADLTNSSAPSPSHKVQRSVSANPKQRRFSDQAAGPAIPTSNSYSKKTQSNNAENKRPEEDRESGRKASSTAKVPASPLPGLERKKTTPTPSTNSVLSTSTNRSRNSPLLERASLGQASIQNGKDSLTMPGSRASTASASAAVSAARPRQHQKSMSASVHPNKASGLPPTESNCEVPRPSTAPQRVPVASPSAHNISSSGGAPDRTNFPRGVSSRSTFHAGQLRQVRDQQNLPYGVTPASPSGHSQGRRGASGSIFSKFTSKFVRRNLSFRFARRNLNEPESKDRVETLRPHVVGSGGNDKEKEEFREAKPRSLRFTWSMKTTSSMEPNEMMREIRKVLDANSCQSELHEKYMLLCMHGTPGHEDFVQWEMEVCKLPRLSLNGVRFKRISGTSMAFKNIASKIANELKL

[4] = target: T2, cGMP-dependent protein kinase 2 (Homo sapiens) (UniProt Q13237); assay: Selectivity interaction (Kinase panel (Invitrogen)) EUB0000639a PRKG2; conditions: at 200 nM
T2 sequence (whole entry): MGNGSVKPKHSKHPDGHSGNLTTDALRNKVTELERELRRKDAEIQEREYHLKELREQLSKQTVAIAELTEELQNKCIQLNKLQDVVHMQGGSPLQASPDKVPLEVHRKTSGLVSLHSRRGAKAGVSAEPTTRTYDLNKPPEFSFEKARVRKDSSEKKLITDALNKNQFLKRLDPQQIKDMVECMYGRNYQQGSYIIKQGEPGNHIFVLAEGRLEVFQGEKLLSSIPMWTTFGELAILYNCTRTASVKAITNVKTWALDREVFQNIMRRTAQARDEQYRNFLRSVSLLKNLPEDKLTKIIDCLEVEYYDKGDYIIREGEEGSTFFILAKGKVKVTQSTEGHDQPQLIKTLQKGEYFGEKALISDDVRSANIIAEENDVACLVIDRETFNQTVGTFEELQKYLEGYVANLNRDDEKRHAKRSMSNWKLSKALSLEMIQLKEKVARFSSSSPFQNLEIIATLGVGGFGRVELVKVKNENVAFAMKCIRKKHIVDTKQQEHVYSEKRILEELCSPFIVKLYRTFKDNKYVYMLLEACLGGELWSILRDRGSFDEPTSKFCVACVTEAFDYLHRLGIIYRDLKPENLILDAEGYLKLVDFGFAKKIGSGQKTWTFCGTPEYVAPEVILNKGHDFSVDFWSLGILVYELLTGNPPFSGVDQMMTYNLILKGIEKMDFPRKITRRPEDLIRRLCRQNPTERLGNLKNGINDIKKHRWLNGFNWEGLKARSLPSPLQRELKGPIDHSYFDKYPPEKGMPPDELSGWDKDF

[5] = target: T3, Serine/threonine-protein kinase ULK3 (Homo sapiens) (UniProt Q6PHR2); assay: Selectivity interaction (KinomeScan (DiscoverX)) EUB0000595a ULK3; conditions: at 10 µM
T3 sequence (whole entry): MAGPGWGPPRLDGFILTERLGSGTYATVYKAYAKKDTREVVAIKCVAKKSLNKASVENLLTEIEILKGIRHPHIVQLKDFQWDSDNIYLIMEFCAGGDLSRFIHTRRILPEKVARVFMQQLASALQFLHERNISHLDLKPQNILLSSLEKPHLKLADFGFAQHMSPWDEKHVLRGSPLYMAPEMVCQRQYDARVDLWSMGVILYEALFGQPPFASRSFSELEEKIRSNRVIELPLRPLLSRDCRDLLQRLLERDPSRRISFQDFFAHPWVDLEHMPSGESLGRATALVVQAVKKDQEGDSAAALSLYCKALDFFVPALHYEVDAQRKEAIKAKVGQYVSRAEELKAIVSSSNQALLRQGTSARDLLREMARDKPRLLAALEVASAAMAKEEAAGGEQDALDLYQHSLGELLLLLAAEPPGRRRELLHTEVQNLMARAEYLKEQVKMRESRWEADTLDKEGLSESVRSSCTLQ

[6] = target: T4, Serine/threonine-protein kinase Nek11 (Homo sapiens) (UniProt Q8NG66); assay: Selectivity interaction (KinomeScan (DiscoverX)) EUB0000045b NEK11
T4 sequence (whole entry): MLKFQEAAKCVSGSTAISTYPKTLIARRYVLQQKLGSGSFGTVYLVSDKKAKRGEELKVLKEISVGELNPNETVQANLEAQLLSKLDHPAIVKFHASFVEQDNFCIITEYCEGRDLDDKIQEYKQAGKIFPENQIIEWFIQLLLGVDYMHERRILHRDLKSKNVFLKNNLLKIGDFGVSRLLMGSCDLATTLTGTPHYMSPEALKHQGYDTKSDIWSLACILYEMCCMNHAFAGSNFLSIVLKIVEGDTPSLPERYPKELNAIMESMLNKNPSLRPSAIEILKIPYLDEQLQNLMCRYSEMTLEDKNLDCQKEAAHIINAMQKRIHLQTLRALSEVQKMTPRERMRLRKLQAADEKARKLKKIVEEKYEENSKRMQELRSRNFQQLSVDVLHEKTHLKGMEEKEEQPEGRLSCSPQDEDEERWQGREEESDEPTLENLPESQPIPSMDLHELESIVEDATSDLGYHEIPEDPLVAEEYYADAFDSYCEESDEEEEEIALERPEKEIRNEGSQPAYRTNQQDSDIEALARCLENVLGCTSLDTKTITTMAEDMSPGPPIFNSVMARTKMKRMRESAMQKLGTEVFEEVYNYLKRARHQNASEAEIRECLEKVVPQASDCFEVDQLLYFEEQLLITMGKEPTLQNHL

[7] = target: Ribosomal protein S6 kinase alpha-4 (Homo sapiens) (UniProt O75676); assay: Selectivity interaction (KinomeScan (DiscoverX)) EUB0000618a RPS6KA4; conditions: at 10 µM
[8] = target: Fibroblast growth factor receptor 3 (Homo sapiens, UniProt P22607); assay: (§1) Selectivity interaction (KinomeScan (DiscoverX)) EUB0000607a FGFR3; conditions: at 10 µM
Sequence of Fibroblast growth factor receptor 3 (P22607 23-806 limits assumed): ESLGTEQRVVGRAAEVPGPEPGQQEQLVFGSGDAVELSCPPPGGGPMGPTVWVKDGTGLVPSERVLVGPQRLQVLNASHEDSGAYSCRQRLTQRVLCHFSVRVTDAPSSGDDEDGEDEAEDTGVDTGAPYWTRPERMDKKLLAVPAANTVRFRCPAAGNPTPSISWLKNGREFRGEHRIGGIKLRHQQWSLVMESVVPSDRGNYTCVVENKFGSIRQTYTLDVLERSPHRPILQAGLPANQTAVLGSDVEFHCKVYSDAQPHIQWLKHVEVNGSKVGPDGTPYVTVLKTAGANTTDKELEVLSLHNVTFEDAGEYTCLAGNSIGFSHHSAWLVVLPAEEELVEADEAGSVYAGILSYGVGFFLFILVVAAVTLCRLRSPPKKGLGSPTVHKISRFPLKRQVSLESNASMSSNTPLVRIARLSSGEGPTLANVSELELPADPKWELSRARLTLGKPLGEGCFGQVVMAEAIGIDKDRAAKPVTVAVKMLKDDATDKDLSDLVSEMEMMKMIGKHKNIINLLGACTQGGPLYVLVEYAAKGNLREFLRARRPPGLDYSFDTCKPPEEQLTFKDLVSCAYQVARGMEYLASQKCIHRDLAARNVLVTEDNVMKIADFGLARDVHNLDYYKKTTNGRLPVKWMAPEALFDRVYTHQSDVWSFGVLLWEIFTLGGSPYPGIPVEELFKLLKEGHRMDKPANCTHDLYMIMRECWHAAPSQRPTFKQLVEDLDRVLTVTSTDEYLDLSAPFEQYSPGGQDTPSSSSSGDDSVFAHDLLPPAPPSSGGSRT

[9] = tested on: Fibroblast growth factor receptor 3 (Homo sapiens), P22607 [G697C]; assay: as §1; conditions: at 10 µM
Sequence of Fibroblast growth factor receptor 3 (Homo sapiens), P22607 [G697C] (P22607 whole entry G697C): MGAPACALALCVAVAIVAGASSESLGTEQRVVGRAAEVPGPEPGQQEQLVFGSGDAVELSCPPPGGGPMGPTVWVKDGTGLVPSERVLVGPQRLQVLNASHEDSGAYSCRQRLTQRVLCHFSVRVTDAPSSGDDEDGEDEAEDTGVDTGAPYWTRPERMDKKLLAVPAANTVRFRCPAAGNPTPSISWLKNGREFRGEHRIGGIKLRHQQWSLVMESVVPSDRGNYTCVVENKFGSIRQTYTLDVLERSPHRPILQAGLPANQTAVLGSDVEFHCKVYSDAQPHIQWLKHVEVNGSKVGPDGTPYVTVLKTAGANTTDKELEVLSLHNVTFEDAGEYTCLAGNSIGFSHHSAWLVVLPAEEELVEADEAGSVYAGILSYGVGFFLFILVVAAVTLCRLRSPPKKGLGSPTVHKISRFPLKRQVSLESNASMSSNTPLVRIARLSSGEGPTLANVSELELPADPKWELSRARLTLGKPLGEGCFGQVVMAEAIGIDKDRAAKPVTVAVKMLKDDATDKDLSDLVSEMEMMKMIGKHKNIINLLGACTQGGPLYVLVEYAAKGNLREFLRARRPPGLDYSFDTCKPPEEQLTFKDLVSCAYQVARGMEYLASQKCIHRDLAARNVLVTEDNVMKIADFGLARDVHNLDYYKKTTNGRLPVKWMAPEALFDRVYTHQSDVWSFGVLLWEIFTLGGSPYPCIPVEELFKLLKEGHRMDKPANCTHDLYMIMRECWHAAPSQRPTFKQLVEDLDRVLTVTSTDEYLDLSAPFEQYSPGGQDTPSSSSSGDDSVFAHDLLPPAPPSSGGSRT

[10] = target: DNA (cytosine-5)-methyltransferase 3B (Homo sapiens) (UniProt Q9UBC3); assay: Selectivity interaction (Methyltransferase screen (radiometric assays, panel of 8 PRMTs, 21 protein lysine methyltransferases, 3 DNA methyltransferases, and one RNA methyltransferase)) EUB0000272b DNMT3B
[11] = target: Protein arginine N-methyltransferase 1 (Homo sapiens, UniProt Q99873); assay: Selectivity interaction (Methyltransferase screen (radiometric assays, panel of 8 PRMTs, 21 protein lysine methyltransferases, 3 DNA methyltransferases, and one RNA methyltransferase)) EUB0000271b PRMT1
Sequence of Protein arginine N-methyltransferase 1 (Q99873 whole entry, looked up): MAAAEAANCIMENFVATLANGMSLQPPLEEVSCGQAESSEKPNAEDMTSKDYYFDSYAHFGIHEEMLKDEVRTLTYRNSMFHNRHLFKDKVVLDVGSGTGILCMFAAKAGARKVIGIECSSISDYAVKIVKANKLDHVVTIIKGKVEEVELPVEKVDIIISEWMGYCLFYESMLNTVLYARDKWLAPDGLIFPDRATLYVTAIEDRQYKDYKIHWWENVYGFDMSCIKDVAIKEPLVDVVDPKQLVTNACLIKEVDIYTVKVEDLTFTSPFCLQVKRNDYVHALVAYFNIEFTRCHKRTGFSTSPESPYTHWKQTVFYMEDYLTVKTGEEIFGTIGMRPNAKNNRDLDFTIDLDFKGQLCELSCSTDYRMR

SMILES: CNCCN1CCC(c2cc(CN(C)C(=O)c3cccc(Oc4ccccc4)c3)ccn2)CC1
- % activity [1]: > 90%

SMILES: Cc1cc(CN)cc(C)c1-c1ncn(C)c1-c1cncn1C
- dTM [2]: -1.79 K

SMILES: CC[C@@H]1[C@H](F)C(=O)N[C@@H]1COc1nccc2cc(C(N)=O)c(OC)cc12 [ZIMLOVISERTIB]
- % of inhibition [3]: 5.09%
- % of inhibition [4]: 10.5%

SMILES: COCC(=O)NC/C=C/c1ccc2ncnc(Nc3ccc(Oc4ccc(C)nc4)c(C)c3)c2c1 [CP-724714]
- % of control [5]: 68%

SMILES: C=CC(=O)Nc1cc(-n2c(=O)ccc3cnc4ccc(-c5ccc(NS(C)(=O)=O)cc5)cc4c32)ccc1C
- % of control ([6]; at 1 µM): 100%
- % of control ([6]; at 10 µM): 100%

SMILES: O[C@H]1CC[C@H](Nc2ncc3nc(Nc4c(F)cc(F)cc4F)n([C@H]4CCOC4)c3n2)CC1
- % of control [7]: 100%

SMILES: CNC(=O)Nc1ccc(-c2nc(N3CC4CCC(C3)O4)c3cnn(C4CCC5(CC4)OCCO5)c3n2)cc1
- % of control [8]: 83%
- % of control [9]: 74%

SMILES: Cc1cc(C)cc([C@H]2c3cc(C)ccc3NC(=O)CN2C(=O)c2ccc(Br)s2)c1
- % of activity ([10]; at 1 µM): 97.3%
- % of activity ([10]; at 10 µM): 102%

SMILES: Cc1cc(C)cc([C@@H]2c3cc(C)ccc3NC(=O)CN2C(=O)c2ccc(Br)s2)c1
- % of activity ([11]; at 1 µM): 98.3%
- % of activity ([11]; at 10 µM): 94.3%
